The nature of series [1]: logP by reversed-phase HPLC (EEC Directive 79/831 Annex V.A8). It counts as physicochemical. The conditions noted are these: * LC-MS, acidic range, pH 2.7, 0.1% aqueous formic acid / acetonitrile. The source says:
[table] The calibration is effected with unbranched alkan-2-ones (having 3 to 16 carbon atoms) with known log P values (log P values determined on the basis of the retention times by linear interpolation between two successive alkanones).

The subject of series [2] is Boophilus microplus females of the SP-resistant Parkhurst strain. Kind of series: Boophilus microplus (dip). It counts as in vivo. The conditions noted are these: 100 ppm, after 7 days, laying of fertile eggs. As for the experimental part:
Boophilus microplus (dip)
Test animals: adult engorged Boophilus microplus females of the SP-resistant Parkhurst strain
Solvent: Dimethyl Sulphoxide
10 mg of active ingredient are dissolved in 0.5 ml of dimethyl sulphoxide. For the purpose of preparing a suitable formulation, the active ingredient solution is diluted with water to the concentration desired in each case. This active ingredient preparation is pipetted into tubes. 8-10 ticks are transferred into a further tube with holes. The tube is immersed into the active ingredient formulation, and all ticks are completely wetted. After the liquid has run out, the ticks are transferred onto filter discs in plastic dishes and stored in a climate-controlled room. The activity is assessed after 7 days by laying of fertile eggs. Eggs whose fertility is not outwardly visible are stored in glass tubes in a climate-controlled cabinet until the larvae hatch. Efficacy of 100% means that none of the ticks has laid any fertile eggs.

In the next series the test system is Boophilus microplus. Kind of series: Boophilus microplus test (BOOPMI injection). It counts as in vivo. The conditions noted are these: 20 μg/animal, injection into abdomen, after 7 days, laying of fertile eggs. How it is done: Boophilus microplus Test (BOOPMI Injection) Solvent: Dimethyl Sulphoxide To prepare an appropriate active ingredient formulation, 10 mg of active ingredient are mixed with 0.5 ml of solvent and the concentrate is diluted with solvent to the desired concentration. The active ingredient solution is injected into the abdomen (Boophilus microplus), and the animals are transferred into dishes and stored in a climate-controlled room. The efficacy is assessed by laying of fertile eggs. After 7 days, the efficacy in % is determined. 100% means that none of the ticks has laid any fertile eggs.

In a further series the test system is Lucilia cuprina larvae. Put plainly: Lucilia cuprina test (LUCICU). It counts as in vivo. The settings on record: 100 ppm, treated horse meat, after 2 days. As for the experimental part: Lucilia cuprina Test (LUCICU) Solvent: Dimethyl Sulphoxide To prepare an appropriate active ingredient formulation, 10 mg of active ingredient are mixed with 0.5 ml of dimethyl sulphoxide and the concentrate is diluted with water to the desired concentration. Vessels containing horse meat treated with the active ingredient preparation of the desired concentration are populated with about 20 Lucilia cuprina larvae. After 2 days, the kill in % is determined. 100% means that all of the larvae have been killed; 0% means that none of the larvae have been killed.

In a further series the test system is Myzus persicae. Put plainly: Myzus test (MYZUPE spray treatment). It counts as in vivo. The conditions noted are these: 500 g/ha, Chinese cabbage discs, after 6 days. How it is done: Myzus test (MYZUPE Spray Treatment) Solvent: 78 parts by weight of acetone • • 1.5 parts by weight of dimethylformamide Emulsifier: 0.5 part by weight of alkylaryl polyglycol ether To prepare an appropriate active ingredient preparation, 1 part by weight of active ingredient is mixed with the stated amounts of solvent and emulsifier, and the concentrate is diluted with emulsifier-containing water to the desired concentration. Discs of Chinese cabbage (Brassica pekinensis) infested by all stages of the green peach aphid (Myzus persicae) are sprayed with an active ingredient preparation of the desired concentration. After 6 days, the efficacy in % is determined. 100% means that all of the aphids have been destroyed; 0% means that none of the aphids have been destroyed.

A further series deals with Phaedon cochleariae. Put plainly: Phaedon test (PHAECO spray treatment). It counts as in vivo. The conditions noted are these: 500 g/ha, Chinese cabbage discs, after 7 days. As for the experimental part: Phaedon Test ([…] Spray Treatment) Solvent: 78.0 parts by weight of acetone • • 1.5 parts by weight of dimethylformamide Emulsifier: 0.5 part by weight of alkylaryl polyglycol ether To prepare an appropriate active ingredient preparation, 1 part by weight of active ingredient is mixed with the stated amounts of solvent and emulsifier, and the concentrate is diluted with emulsifier-containing water to the desired concentration. Discs of Chinese cabbage (Brassica pekinensis) are sprayed with an active ingredient preparation of the desired concentration and, after drying, populated with larvae of the mustard beetle (Phaedon cochleariae). After 7 days, the efficacy in % is determined. 100% means that all beetle larvae have been killed; 0% means that none of the beetle larvae have been killed.

A further series concerns Spodoptera frugiperda. Put plainly: Spodoptera frugiperda test (SPODFR spray treatment). It counts as in vivo. The settings on record: 500 g/ha, maize leaf discs, after 7 days. How it is done: Spodoptera frugiperda Test (SPODFR Spray Treatment) Solvent: 78.0 parts by weight of acetone • • 1.5 parts by weight of dimethylformamide Emulsifier: 0.5 part by weight of alkylaryl polyglycol ether To prepare an appropriate active ingredient preparation, 1 part by weight of active ingredient is mixed with the stated amounts of solvent and emulsifier, and the concentrate is diluted with emulsifier-containing water to the desired concentration. Discs of maize leaves (Zea mays) are sprayed with an active ingredient preparation of the desired concentration and, after drying, populated with caterpillars of the armyworm (Spodoptera frugiperda). After 7 days, the efficacy in % is determined. 100% means that all caterpillars have been killed; 0% means that none of the caterpillars have been killed.

A further series deals with Tetranychus urticae. Put plainly: Tetranychus test, OP-resistant (TETRUR spray treatment). Type of series: in vivo. The settings on record: bean leaf discs, after 6 days. As for the experimental part: Tetranychus Test, OP-resistant (TETRUR Spray Treatment)
Solvent: 78.0 parts by weight of acetone • • 1.5 parts by weight of dimethylformamide
Emulsifier: 0.5 part by weight of alkylaryl polyglycol ether
To prepare an appropriate active ingredient preparation, 1 part by weight of active ingredient is mixed with the stated amounts of solvent and emulsifier, and the concentrate is diluted with emulsifier-containing water to the desired concentration. Discs of bean leaves (Phaseolus vulgaris) infested by all stages of the red spider mite (Tetranychus urticae) are sprayed with an active ingredient preparation of the desired concentration. After 6 days, the efficacy in % is determined. 100% means that all spider mites have been killed; 0% means that none of the spider mites have been killed.

In the next series the test system is Ctenocephalides felis. Put plainly: Ctenocephalides felis test (CTECFE). It counts as in vivo. The settings on record: 100 ppm in citrated cow's blood, after 2 days. As for the experimental part: Ctenocephalides felis Test ([…]) Solvent: 1 Part by Weight of Dimethyl Sulphoxide For the purpose of preparing an appropriate active ingredient formulation, 10 mg of active ingredient are mixed with 0.5 ml of dimethyl sulphoxide. A portion of the concentrate is diluted with citrated cow's blood and the desired concentration is established. About 20 unfed adult fleas (Ctenocephalides felis) are introduced into a chamber closed at the top and bottom with gauze. A metal cylinder, the bottom of which is closed with Parafilm, is placed onto the chamber. The cylinder contains the blood/active ingredient preparation, which can be imbibed by the fleas through the Parafilm membrane. After 2 days, the kill in % is determined. 100% means that all fleas have been killed; 0% means that none of the fleas have been killed.

The test system of the next series is Musca domestica. Kind of series: Musca domestica test. It counts as in vivo. The conditions noted are these: after 2 days. As for the experimental part:
Musca domestica Test Solvent: Dimethyl Sulphoxide To prepare an appropriate active ingredient formulation, 10 mg of active ingredient are mixed with 0.5 ml of dimethyl sulphoxide and the concentrate is diluted with water to the desired concentration. Vessels containing a sponge treated with the active ingredient preparation of the desired concentration are populated with adult Musca domestica. After 2 days, the kill in % is determined. 100% means that all of the flies have been killed; 0% means that none of the flies have been killed.

Regarding `COc1nccnc1-n1nc(C(C)(F)F)c(-c2ccc(Cl)c(C(F)(F)F)c2)c1N` [Ex. 20], the “log P” value in [1] is 3.74*. The efficacy (in series [2]; in the series with Boophilus microplus; with Myzus persicae; in the series on Phaedon cochleariae; in the series with Spodoptera frugiperda; in the series with Tetranychus urticae (500 g/ha)) was 100% each time. For the same molecule, in the series on Lucilia cuprina larvae, the “efficacy (kill)” value came to 100%.
Consider `C=Cc1nn(-c2nccnc2OC)c(N)c1-c1cc(Cl)cc(Cl)c1` [Ex. 8], for which the “log P” value in series [1] is reported as 3.51*. In addition, the figures for the efficacy (in [2]; in the series with Boophilus microplus; with Myzus persicae) were 90%, 100% and 100%, respectively. Moreover, the “efficacy (kill)” value with Lucilia cuprina larvae is 100%.
As for `COc1cc(-c2c(C(F)(F)F)nn(-c3nccnc3OC)c2N)cc(C(F)(F)F)c1` [compound 26, 1-(3-methoxypyrazin-2-yl)-4-[3-methoxy-5-(trifluoromethyl)phenyl]-3-(trifluoromethyl)-1H-pyrazol-5-amine], the chromatographic logP in series [1] (reversed-phase HPLC column, read-out: log P) came to 3.63. In addition, the efficacy in series [2] was 90%; with Boophilus microplus, 100%; in the series on Phaedon cochleariae, 100%; in the series on Spodoptera frugiperda, 83%; in the series on Tetranychus urticae (500 g/ha), 100%. For the same molecule, the “efficacy (kill)” value with Ctenocephalides felis is 95%; with Lucilia cuprina larvae, 100%.
With `COc1nccnc1-n1nc(C(F)(F)C(F)(F)F)c(-c2cc(F)cc(C(F)(F)F)c2)c1N` [Ex. 21], the “log P” value in series [1] is 4.23*. In addition, the efficacy in the series with Boophilus microplus, in the series with Myzus persicae, with Phaedon cochleariae, in the series with Spodoptera frugiperda and with Tetranychus urticae (500 g/ha) was 100% each time. The “efficacy (kill)” value with Lucilia cuprina larvae and in the series with Musca domestica (100 ppm) was 100% throughout.
Take `CCOc1nccnc1-n1nc(C(F)(F)F)c(-c2cc(Cl)cc(C(F)(F)F)c2)c1N` [Ex. 12]: the “log P” value in series [1] is listed as 4.47*. Also, the figures for the efficacy in the series with Boophilus microplus, with Phaedon cochleariae and with Tetranychus urticae (500 g/ha) were 100%, 100% and 90%, respectively. Moreover, the “efficacy (kill)” value in the series on Ctenocephalides felis is reported as 90%; in the series with Lucilia cuprina larvae, 100%; with Musca domestica (100 ppm), 100%.
In the case of `COc1nccnc1-n1nc(C(F)(F)F)c(-c2cc(Br)c3c(c2)OCCO3)c1N` [Ex. 132], in [1], the “log P” value was 3.09*. Moreover, the efficacy stood at 100% in [2]; 100% in the series with Boophilus microplus; 100% in the series on Phaedon cochleariae; 100% in the series with Spodoptera frugiperda; 80% in the series on Tetranychus urticae (500 g/ha). In addition, the “efficacy (kill)” value worked out at 100% with Ctenocephalides felis, 100% in the series with Lucilia cuprina larvae and 80% in the series with Musca domestica (100 ppm).
As for `COc1nccnc1-n1nc(C(F)(F)F)c(-c2cc(Cl)c3c(c2)OCCO3)c1N` [Ex. 133], the “log P” value in series [1] is listed as 3.02*. Besides, the efficacy in series [2] amounted to 95%; in the series with Boophilus microplus, 100%; in the series with Phaedon cochleariae, 100%; in the series on Spodoptera frugiperda it was 100%; in the series with Tetranychus urticae (100 g/ha), 90%. Moreover, the “efficacy (kill)” value in the series with Ctenocephalides felis amounted to 100%; in the series on Lucilia cuprina larvae it was 100%; in the series on Musca domestica (20 ppm), 80%.
With `COc1cc(-c2c(C(F)(F)F)nn(-c3nccnc3OC)c2N)cc(C(F)(F)F)c1OC` [Ex. 89], the “log P” value in series [1] is reported as 3.56*. In addition, the efficacy in the series on Boophilus microplus, in the series with Phaedon cochleariae and in the series on Spodoptera frugiperda was 100% each time. Further, the “efficacy (kill)” value with Ctenocephalides felis is recorded as 100%; with Lucilia cuprina larvae, 100%; in the series on Musca domestica (100 ppm) it was 80%.
Turning to `COc1nccnc1-n1nc(C(F)(F)F)c(-c2ccc(Cl)c(C(F)(F)F)c2)c1N` [Ex. 18], the “log P” value in series [1] is reported as 3.94*. For the same molecule, the efficacy in series [2] was 100%; with Boophilus microplus, 100%; in the series with Myzus persicae it was 90%; with Phaedon cochleariae, 100%; with Spodoptera frugiperda, 83%; in the series with Tetranychus urticae (500 g/ha) it was 100%. The “efficacy (kill)” value in the series on Lucilia cuprina larvae came to 100%.
In the case of `COc1nccnc1-n1nc(C(F)(F)F)c(-c2cc(Cl)cc(Cl)c2)c1N` [Ex. 6], in series [1], the “log P” value was 3.95*. Also, the results for the efficacy in the series on Boophilus microplus, in the series with Phaedon cochleariae and with Spodoptera frugiperda were 100%, 100% and 83%, respectively. Moreover, the “efficacy (kill)” value came to 90% with Ctenocephalides felis, 100% in the series with Lucilia cuprina larvae and 80% in the series on Musca domestica (100 ppm).
Take `COc1nccnc1-n1nc(C(F)(F)F)c(-c2cc(Cl)cc(C(F)(F)F)c2)c1N` [Ex. 10]: the “log P” value in series [1] was 4.07*. This molecule returned an efficacy with Boophilus microplus of 100%. Also, the “efficacy (kill)” value worked out at 90% with Ctenocephalides felis, 100% in the series on Lucilia cuprina larvae and 100% with Musca domestica (100 ppm).
As for `COc1nccnc1-n1nc(C(F)(F)F)c(-c2cc(Br)c3c(c2)OCCCO3)c1N` [Ex. 131], in series [1], the “log P” value is 3.32*. The efficacy with Boophilus microplus, in the series on Phaedon cochleariae, with Spodoptera frugiperda and in the series with Tetranychus urticae (500 g/ha) was 100% in each case. Further, the “efficacy (kill)” value in the series with Ctenocephalides felis, in the series on Lucilia cuprina larvae and in the series on Musca domestica (100 ppm) was 100% throughout.

The values above are taken from patent US20120190687A1, “Pyrazinylpyrazoles” (Bayer CropScience Ag, priority 2009, published 2012).
